Source: article PMC12090182, “Repurposing of the RIPK1-Selective Benzo[1,4]oxazepin-4-one Scaffold for the Development of a Type III LIMK1/2 Inhibitor” (ACS Chemical Biology, 2025)

Columns and labels:
JAK2 (V617F) = JAK2 (V617F) (Homo sapiens, UniProt O60674, V617F); experiment: cell-based; conditions: HEK-293T; 1 μM inhibitor, HEK293T cells
BRAF(V600E) = BRAF(V600E) (Homo sapiens, UniProt P15056, V600E); experiment: cell-based; conditions: HEK-293T; 1 μM inhibitor, HEK293T cells
BTK = target: T1, BTK (Homo sapiens, UniProt Q06187); experiment: NanoBRET cellular target engagement; type: cell-based; conditions: HEK293T cells, read-out: EC50 (NanoBRET), Figure 4C
T1 construct: full-length LIMK1/2, RIPK1, BTK, and LRRK2 cloned in a frame in a NanoLuc-vector (Promega); host or cells: HEK293T
Experimental: (§1) The assay was performed as described previously.[31],[32] In brief, full-length LIMK1/2, RIPK1, BTK, and LRRK2 cloned in a frame in a NanoLuc-vector (Promega) were transfected into HEK293T cells (ATCC CRL-1573) using FuGENE HD (Promega, E2312), and proteins were allowed to express for 20 h. The serially diluted inhibitor and NanoBRET Kinase Tracer (Promega) used at the previously determined Tracer KD,app (Table S1) were pipetted into white 384-well plates (Greiner 781 207) using an ECHO 550 acoustic dispenser (Labcyte). The corresponding transfected cells were added and reseeded at a density of 2 × 10^5 cells/mL after trypsinization and resuspension in Opti-MEM without phenol red (Life Technologies). The system was allowed to equilibrate for 2 h at 37 °C and 5% CO2 prior to BRET measurements. To measure BRET, a NanoBRET Nano-Glo substrate and an extracellular NanoLuc inhibitor (Promega, N2160) were added as per the manufacturer's protocol, and filtered luminescence was measured on a PHERAstar plate reader (BMG Labtech) equipped with a luminescence filter pair (a 450 nm BP filter (donor) and a 610 nm LP filter (acceptor)). Competitive displacement data were then plotted using GraphPad Prism 10 software using a normalized three-parameter curve fit with the following equation: Y = 100/( [drawing 1] ).

LRRK2 = LRRK2 (Homo sapiens, UniProt Q5S007); experiment: NanoBRET cellular target engagement; type: cell-based; conditions: LRRK2, HEK293T cells; read-out: EC50 (NanoBRET), Figure 4C
Chain of LRRK2 (Q5S007 whole entry): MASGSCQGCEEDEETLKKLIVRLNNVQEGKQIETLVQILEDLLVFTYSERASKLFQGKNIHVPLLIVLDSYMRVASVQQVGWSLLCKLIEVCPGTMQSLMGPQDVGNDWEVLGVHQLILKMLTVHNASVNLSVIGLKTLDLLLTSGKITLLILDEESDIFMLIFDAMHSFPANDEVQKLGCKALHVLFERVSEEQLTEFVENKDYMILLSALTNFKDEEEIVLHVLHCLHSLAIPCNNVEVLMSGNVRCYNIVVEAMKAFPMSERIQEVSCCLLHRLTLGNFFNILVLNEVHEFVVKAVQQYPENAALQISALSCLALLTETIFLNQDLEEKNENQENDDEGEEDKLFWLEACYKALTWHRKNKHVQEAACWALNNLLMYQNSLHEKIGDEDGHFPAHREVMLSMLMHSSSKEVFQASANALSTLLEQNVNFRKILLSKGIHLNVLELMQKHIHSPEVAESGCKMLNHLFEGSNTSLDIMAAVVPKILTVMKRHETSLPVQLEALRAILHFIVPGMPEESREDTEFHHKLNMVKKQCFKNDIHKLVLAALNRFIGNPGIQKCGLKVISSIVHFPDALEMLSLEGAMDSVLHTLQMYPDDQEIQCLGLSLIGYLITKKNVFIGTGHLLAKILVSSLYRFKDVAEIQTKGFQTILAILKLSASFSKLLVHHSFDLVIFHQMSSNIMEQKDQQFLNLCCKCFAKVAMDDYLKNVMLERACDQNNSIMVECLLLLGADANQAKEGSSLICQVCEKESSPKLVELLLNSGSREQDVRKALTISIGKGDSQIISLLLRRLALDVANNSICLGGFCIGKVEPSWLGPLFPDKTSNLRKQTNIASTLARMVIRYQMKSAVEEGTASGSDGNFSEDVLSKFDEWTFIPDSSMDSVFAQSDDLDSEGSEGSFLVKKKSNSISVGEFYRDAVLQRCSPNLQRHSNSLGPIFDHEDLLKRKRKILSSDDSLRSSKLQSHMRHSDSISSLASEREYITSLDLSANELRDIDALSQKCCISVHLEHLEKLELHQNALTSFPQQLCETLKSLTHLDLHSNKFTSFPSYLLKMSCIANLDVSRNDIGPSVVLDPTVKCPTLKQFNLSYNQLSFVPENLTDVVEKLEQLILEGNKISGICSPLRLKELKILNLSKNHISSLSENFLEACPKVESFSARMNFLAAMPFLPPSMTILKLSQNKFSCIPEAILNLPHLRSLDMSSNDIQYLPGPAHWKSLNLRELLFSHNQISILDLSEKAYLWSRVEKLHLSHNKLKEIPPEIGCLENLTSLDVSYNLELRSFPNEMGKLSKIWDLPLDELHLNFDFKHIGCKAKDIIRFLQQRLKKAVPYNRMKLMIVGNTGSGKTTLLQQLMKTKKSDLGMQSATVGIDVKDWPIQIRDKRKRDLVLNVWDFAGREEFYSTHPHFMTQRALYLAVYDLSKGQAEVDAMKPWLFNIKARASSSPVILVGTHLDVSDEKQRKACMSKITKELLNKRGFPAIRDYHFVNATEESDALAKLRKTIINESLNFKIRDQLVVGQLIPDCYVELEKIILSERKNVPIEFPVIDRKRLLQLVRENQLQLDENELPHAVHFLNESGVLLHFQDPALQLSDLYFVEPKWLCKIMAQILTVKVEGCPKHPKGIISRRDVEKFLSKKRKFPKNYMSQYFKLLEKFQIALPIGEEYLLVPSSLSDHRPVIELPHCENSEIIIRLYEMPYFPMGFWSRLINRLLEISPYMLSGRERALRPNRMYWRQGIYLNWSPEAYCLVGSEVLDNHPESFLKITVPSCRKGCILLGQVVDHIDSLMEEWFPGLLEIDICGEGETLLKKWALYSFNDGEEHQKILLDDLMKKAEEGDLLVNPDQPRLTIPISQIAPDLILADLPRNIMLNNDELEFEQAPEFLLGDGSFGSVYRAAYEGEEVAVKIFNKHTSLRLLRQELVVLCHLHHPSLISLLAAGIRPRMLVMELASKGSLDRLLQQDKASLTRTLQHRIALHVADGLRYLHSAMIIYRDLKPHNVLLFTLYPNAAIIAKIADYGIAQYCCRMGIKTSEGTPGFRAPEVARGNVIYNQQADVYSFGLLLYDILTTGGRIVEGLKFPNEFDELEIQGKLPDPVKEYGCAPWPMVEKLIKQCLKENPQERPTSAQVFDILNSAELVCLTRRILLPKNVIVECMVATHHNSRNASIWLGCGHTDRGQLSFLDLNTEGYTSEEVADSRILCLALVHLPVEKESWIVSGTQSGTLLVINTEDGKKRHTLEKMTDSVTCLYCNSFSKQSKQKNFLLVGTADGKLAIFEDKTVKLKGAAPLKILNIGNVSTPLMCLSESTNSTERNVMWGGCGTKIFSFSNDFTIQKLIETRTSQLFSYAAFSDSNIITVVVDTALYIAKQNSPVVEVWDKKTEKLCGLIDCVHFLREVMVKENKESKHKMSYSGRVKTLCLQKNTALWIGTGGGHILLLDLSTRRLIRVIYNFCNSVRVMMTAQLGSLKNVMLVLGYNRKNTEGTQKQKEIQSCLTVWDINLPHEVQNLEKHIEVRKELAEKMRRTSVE
Experimental: as §1

[1] = target: 468 kinases including some pathogenic mutants (Homo sapiens, UniProt O75747); experiment: biochemical; type: binding; conditions: PIK3C2G (Entrez PIK3C2G), 100 nM; read-out: Percent Control
[2] = target: 468 kinases including some pathogenic mutants (Homo sapiens, UniProt P00533, DEL752-759); experiment: biochemical; type: binding; conditions: read-out: Percent Control
[3] = target: 468 kinases including some pathogenic mutants (Homo sapiens, UniProt P42685); experiment: biochemical; type: binding; conditions: FRK (Entrez FRK), 100 nM; read-out: Percent Control
Chain of 468 kinases including some pathogenic mutants (Homo sapiens, UniProt P42685) (P42685 whole entry, change not shown): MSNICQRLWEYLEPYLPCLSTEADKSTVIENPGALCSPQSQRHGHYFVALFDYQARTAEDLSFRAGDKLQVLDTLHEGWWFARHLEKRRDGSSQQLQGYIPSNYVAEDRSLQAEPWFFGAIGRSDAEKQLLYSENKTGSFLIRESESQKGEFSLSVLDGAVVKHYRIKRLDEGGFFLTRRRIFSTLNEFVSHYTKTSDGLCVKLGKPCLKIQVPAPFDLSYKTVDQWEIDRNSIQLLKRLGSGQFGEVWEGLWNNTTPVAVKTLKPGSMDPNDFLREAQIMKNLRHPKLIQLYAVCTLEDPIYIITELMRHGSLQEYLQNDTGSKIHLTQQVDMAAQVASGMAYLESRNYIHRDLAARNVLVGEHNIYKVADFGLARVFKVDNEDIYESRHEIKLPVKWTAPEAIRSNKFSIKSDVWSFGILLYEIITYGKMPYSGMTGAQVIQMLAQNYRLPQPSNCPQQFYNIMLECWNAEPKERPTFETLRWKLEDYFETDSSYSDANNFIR

[4] = target: 468 kinases including some pathogenic mutants (Homo sapiens, UniProt Q00536); experiment: biochemical; type: binding; conditions: PCTK1 (Entrez CDK16), 1000 nM; read-out: Percent Control
Chain of 468 kinases including some pathogenic mutants (Homo sapiens, UniProt Q00536) (Q00536 whole entry, change not shown): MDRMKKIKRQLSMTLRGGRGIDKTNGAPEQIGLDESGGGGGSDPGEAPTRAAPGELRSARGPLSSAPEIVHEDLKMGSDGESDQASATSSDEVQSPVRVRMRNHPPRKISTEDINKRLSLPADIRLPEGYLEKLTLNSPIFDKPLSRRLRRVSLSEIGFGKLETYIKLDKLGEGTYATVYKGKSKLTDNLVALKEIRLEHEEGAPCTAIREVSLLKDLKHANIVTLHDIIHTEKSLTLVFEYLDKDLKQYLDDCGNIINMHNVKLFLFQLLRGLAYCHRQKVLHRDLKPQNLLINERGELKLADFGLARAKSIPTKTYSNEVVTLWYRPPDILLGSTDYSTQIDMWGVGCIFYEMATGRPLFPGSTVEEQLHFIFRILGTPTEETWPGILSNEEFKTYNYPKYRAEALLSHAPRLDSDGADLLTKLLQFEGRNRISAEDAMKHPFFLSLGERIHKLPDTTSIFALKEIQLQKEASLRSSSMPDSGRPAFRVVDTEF

[5] = target: 468 kinases including some pathogenic mutants (Homo sapiens, UniProt Q05397); experiment: biochemical; type: binding; conditions: FAK (Entrez PTK2), 100 nM; read-out: Percent Control
[6] = target: 468 kinases including some pathogenic mutants (Homo sapiens, UniProt Q15303); experiment: biochemical; type: binding; conditions: ERBB4 (Entrez ERBB4), 100 nM; read-out: Percent Control
[7] = target: 468 kinases including some pathogenic mutants (Homo sapiens, UniProt Q8TDX7); experiment: biochemical; type: binding; conditions: NEK7 (Entrez NEK7), 100 nM; read-out: Percent Control
[8] = target: 468 kinases including some pathogenic mutants (Homo sapiens, UniProt Q9BYP7); experiment: biochemical; type: binding; conditions: WNK3 (Entrez WNK3), 100 nM; read-out: Percent Control
[9] = target: 468 kinases including some pathogenic mutants (Homo sapiens, UniProt Q9NYY3); experiment: biochemical; type: binding; conditions: PLK2 (Entrez PLK2), 1000 nM; read-out: Percent Control
[10] = target: 468 kinases including some pathogenic mutants (Homo sapiens, UniProt Q9P286); experiment: biochemical; type: binding; conditions: PAK7 (Entrez PAK7), 100 nM; read-out: Percent Control
Chain of 468 kinases including some pathogenic mutants (Homo sapiens, UniProt Q9P286) (Q9P286 whole entry, stated change not applied): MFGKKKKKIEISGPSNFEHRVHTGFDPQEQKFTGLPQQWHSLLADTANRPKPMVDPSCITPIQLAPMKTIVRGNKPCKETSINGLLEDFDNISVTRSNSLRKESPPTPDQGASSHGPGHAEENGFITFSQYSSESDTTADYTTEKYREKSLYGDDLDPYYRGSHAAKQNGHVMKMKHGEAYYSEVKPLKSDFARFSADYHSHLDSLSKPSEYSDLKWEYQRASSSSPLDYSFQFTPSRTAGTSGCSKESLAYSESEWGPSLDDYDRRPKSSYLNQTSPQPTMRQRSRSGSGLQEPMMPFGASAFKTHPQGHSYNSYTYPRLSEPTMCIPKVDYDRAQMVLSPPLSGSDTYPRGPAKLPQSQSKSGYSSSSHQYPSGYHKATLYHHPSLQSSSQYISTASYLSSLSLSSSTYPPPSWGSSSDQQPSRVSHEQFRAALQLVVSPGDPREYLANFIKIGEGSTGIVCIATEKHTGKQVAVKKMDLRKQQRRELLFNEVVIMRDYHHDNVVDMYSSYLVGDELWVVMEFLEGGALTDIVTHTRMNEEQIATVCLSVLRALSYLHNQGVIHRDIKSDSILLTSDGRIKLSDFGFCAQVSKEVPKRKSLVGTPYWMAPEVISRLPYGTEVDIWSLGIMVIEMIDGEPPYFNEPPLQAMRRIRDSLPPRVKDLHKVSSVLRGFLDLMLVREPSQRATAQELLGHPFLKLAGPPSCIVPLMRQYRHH

[11] = target: ABL1(F317I)-nonphosphorylated (Homo sapiens, UniProt P00519, F317I); experiment: biochemical; type: binding; conditions: read-out: Percent Control
EGFR(E746-A750del) = EGFR(E746-A750del) (Homo sapiens, UniProt P00533, DEL746-750); experiment: biochemical; type: binding; conditions: read-out: Percent Control
Chain of EGFR(E746-A750del) (P00533 other isoform, or with tags, fused parts or gaps DEL746-750): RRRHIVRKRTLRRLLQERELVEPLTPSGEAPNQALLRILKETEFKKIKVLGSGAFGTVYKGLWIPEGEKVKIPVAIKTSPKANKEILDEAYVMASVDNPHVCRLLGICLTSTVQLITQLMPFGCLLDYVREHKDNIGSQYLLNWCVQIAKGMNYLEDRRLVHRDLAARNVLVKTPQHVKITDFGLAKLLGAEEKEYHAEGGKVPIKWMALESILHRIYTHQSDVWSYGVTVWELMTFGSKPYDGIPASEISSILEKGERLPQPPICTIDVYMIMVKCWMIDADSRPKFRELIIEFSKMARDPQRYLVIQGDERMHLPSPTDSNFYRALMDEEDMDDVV

LRRK2(G2019S) = LRRK2(G2019S) (Homo sapiens, UniProt Q5S007, G2019S); experiment: biochemical; type: binding; conditions: read-out: Percent Control
Chain of LRRK2(G2019S) (Q5S007 whole entry G2019S): as the sequence (Q5S007 whole entry) above, with G2019S counted along it

EGFR(S752-I759del) = EGFR(S752-I759del) (Homo sapiens, UniProt P00533, DEL752-759); experiment: biochemical; type: binding; conditions: read-out: Percent Control
Chain of EGFR(S752-I759del) (P00533 other isoform, or with tags, fused parts or gaps DEL752-759): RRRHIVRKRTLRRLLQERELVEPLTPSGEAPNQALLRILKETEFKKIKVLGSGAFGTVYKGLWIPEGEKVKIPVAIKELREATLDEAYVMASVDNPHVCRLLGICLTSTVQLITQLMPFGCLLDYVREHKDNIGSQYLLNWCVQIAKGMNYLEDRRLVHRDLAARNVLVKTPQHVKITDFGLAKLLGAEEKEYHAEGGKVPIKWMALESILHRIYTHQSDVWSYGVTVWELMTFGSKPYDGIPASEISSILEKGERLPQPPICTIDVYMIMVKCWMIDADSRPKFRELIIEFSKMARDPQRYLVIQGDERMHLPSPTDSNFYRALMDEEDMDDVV

FLT3(R834Q) = FLT3(R834Q) (Homo sapiens, UniProt P36888, R834Q); experiment: biochemical; type: binding; conditions: 1000 nM, read-out: Percent Control
MET(Y1235D) = MET(Y1235D) (Homo sapiens, UniProt P08581, Y1235D); experiment: biochemical; type: binding; conditions: 1000 nM, read-out: Percent Control
EGFR(L747-T751del,Sins) = type: binding
EGFR(L858R) = EGFR(L858R) (Homo sapiens, UniProt P00533, L858R); experiment: biochemical; type: binding; conditions: 1000 nM, read-out: Percent Control
KIT(A829P) = KIT(A829P) (Homo sapiens, UniProt P10721, A829P); experiment: biochemical; type: binding; conditions: compound concentration 100 nM; Entrez KIT; read-out: Percent Control
KIT(V559D,T670I) = KIT(V559D,T670I) (Homo sapiens, UniProt P10721, T670I/V559D); experiment: biochemical; type: binding; conditions: compound concentration 100 nM; Entrez KIT; read-out: Percent Control

Question: For `CN1C(=O)[C@@H](N2CCc3c(nn(Cc4ccccc4)c3C(N)=O)C2=O)COc2cc(Cl)ccc21` [Compound 10, (S)-2-benzyl-6-(8-chloro-5-methyl-4-oxo-2,3,4,5-tetrahydrobenzo[b][1,4]oxazepin-3-yl)-7-oxo-4,5,6,7-tetrahydro-2H-pyrazolo[3,4-c]pyridine-3-carboxamide], which receptor occupancy at 1 µM (JAK2 (V617F)) is on record?
Answer: 2.27%

Question: What about the receptor occupancy at 1 µM (BRAF(V600E)) of the same compound?
Answer: -9.8%

Question: And the EC50 (BTK)?
Answer: > 50 µM

Question: And the EC50 (LRRK2)?
Answer: > 50 µM

Question: What about the remaining activity at 0.1 µM [1] of the same compound?
Answer: 67%

Question: What about the remaining activity at 0.1 µM [2] of the same compound?
Answer: 100%

Question: And the remaining activity at 0.1 µM [3]?
Answer: 75%

Question: And the remaining activity at 1 µM [4]?
Answer: 100%

Question: And the remaining activity at 0.1 µM [5]?
Answer: 82%

Question: And the remaining activity at 0.1 µM [6]?
Answer: 79%

Question: And the remaining activity at 0.1 µM [7]?
Answer: 77%

Question: What about the remaining activity at 0.1 µM [8] of the same compound?
Answer: 73%

Question: And the remaining activity at 1 µM [9]?
Answer: 100%

Question: And the remaining activity at 0.1 µM [10]?
Answer: 80%

Question: And the remaining activity at 1 µM [11]?
Answer: 69%

Question: And the remaining activity at 1 µM (EGFR(E746-A750del))?
Answer: 86%

Question: And the remaining activity at 1 µM (LRRK2(G2019S))?
Answer: 86%

Question: What about the remaining activity at 1 µM (EGFR(S752-I759del)) of the same compound?
Answer: 89%

Question: What about the remaining activity at 1 µM (FLT3(R834Q)) of the same compound?
Answer: 92%

Question: And the remaining activity at 1 µM (MET(Y1235D))?
Answer: 93%

Question: What about the “Percent Control” value (EGFR(L747-T751del,Sins)) of the same compound?
Answer: 97%

Question: What about the remaining activity at 1 µM (EGFR(L858R)) of the same compound?
Answer: 100%

Question: What about the remaining activity at 0.1 µM (KIT(A829P)) of the same compound?
Answer: 86%

Question: And the remaining activity at 0.1 µM (KIT(V559D,T670I))?
Answer: 92%
